Results as given in PubChem BioAssay (NCI).
Where “and” joins values, the source holds several entries; their conditions need not be identical. Equal entries are not always repeated.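 Grown in 96-well plates, cells were treated for 48 hours with each compound at five concentrations. Insufficient inhibition: endpoint recorded as highest concentration tested. At the GI50, growth is halved. TGI denotes the concentration required for complete inhibition of growth.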

What was measured:
Assay in all cases: DTP human tumour cell line panel, 48 h
HCC-2998 colon = system: HCC-2998 colon
HCT-15 colon = system: HCT-15 colon
BT-549 breast = system: BT-549 breast
KM12 colon = system: KM12 colon
HCT-116 colon = system: HCT-116 colon
NCI/ADR-RES ovarian = system: NCI/ADR-RES ovarian
T-47D breast = system: T-47D breast
ACHN renal = system: ACHN renal
NCI-H226 lung = system: NCI-H226 lung
OVCAR-8 ovarian = system: OVCAR-8 ovarian

Row | Structure (SMILES) | GI50 (HCC-2998 colon) [µM] | TGI (HCC-2998 colon) [µM] | GI50 (HCT-15 colon) [µM] | TGI (HCT-15 colon) | GI50 (BT-549 breast) [µM] | TGI (BT-549 breast) [µM] | GI50 (KM12 colon) [µM] | TGI (KM12 colon) | GI50 (HCT-116 colon) [µM] | TGI (HCT-116 colon) [µM] | GI50 (NCI/ADR-RES ovarian) [µM] | TGI (NCI/ADR-RES ovarian) [µM] | GI50 (T-47D breast) [µM] | TGI (T-47D breast) [µM] | GI50 (ACHN renal) [µM] | TGI (ACHN renal) [µM] | GI50 (NCI-H226 lung) [µM] | TGI (NCI-H226 lung) [µM] | GI50 (OVCAR-8 ovarian) [µM] | TGI (OVCAR-8 ovarian) [µM]
1 | CC[C@]12C=CCN3CC[C@@]4(c5ccc(OC)cc5N(C)[C@H]4[C@@](O)(C(=O)OC)[C@@H]1OC(=O)CCC(=O)O[C@H]1CC[C@H]4[C@@H]5CC[C@H]6CC(=O)CC[C@]6(C)[C@H]5CC[C@]14C)[C@@H]32 | 3.34 | > 100 | 2.44 | > 100 µM | 2.21 | > 100 | 3.16 | > 100 µM | 1.02 | 10.1 | 2.91 | > 100 | 2.1 | 29.7 | 3.01 | > 100 | 3.84 | > 100 | 5.84 | > 100
2 | COc1ccc2nc3c(cc2c1)C(=O)CC(c1ccccc1)C3 (stereo unspecified) | 15.9 | > 100 | 2.19 | > 100 µM | 1.36 | > 100 | 0.469 | > 100 µM | 0.383 | > 100 | 0.359 | > 100 | 5.34 | > 100 | 0.853 | > 100 | 2.53 | > 100 | 0.934 | > 100
3 | CCOC(=O)c1c2c(n3ccc(NC(=O)CCN4CCCCC4)cc13)C(=O)c1ncccc1C2=O | 1.53 | 3.24 | 1.13 | 2.86 µM | 4.1 | 21.4 | 1.22 | 2.76 µM | 0.106 | 2.21 | 1.14 | 3.66 | 8 | 30.2 | < 0.01 | 1.51 | 4.32 | 11.3 | 1.28 | 3.71
4 | CC1(C)CCc2c(c(N=Nc3ccccc3F)c3ccccc3c2O)O1 | 22.6 | > 100 | 78.3 | > 100 µM | 33.5 | > 100 | 23 | 65.1 µM | 27.7 | > 100 | 20.1 | 47.1 | 36.9 | > 100 | 22 | 52.5 | 38.7 | > 100 | 23.3 | 51.4
5 | CN[C@@H](Cc1cccc2ccccc12)C(=O)N[C@@H](CC(C)C)B(O)O | 0.0162 | 0.0298 | 0.0172 | 0.0459 µM and 0.406 µM |  | 0.0243 | 0.0203 | 0.0444 µM and 0.0193 µM | 0.0118 | 0.0285 | 0.0412 | 0.197 | 0.0156 | 0.0372 |  | > 100 |  | 0.00722 | 0.0259 | 0.0844
6 | CCN1C(=O)N(CC)C2C1NN=c1s/c(=C\c3ccc(C(F)(F)F)cc3)c(=O)n12 (stereo unspecified) | 0.354 | 11.6 | 0.318 | > 35.6 µM | 0.783 | > 20.8 | 0.309 | > 34.9 µM | 0.343 | > 32.8 | 0.291 |  | 0.36 | 71.3 | 0.808 | 30.5 | 1.14 | > 24.8 | 0.467 | 28.2
7 | CCCCc1n(Cc2ccc3ccccc3n2)cc[n+]1Cc1ccc2ccccc2n1 | 0.813 | 10.4 | 14.8 | 31.5 µM | 0.97 | 5.86 | 0.742 | 6.19 µM | 2.1 | 11 | > 100 | > 100 | 0.375 | 6.01 | 17 | 42 | 2.26 | 11.8 | 2.73 | 12
8 | O=C(c1ccc2ccccc2c1)c1c(C(F)(F)F)n([O-])c2cc(C(F)(F)F)ccc2[n+]1=O | 1.82 | 3.37 | 1.69 | 3.4 µM | 1.43 | 2.9 | 1.69 | 3.22 µM | 1.41 | 2.78 | 2.08 | 4.8 | 1.31 | 3.38 | 1.5 | 2.88 | 1.49 | 3.5 | 2.02 | 5.2
9 | FC(F)(F)c1cc(NC(=S)N2c3ccccc3-n3cccc3C2c2cccnc2)cc(C(F)(F)F)c1 (stereo unspecified) | 5.1 | 19 | 4.76 | 27.7 µM | 8.96 | 45.7 | 8.9 | 32 µM | 12.4 | 40.3 | 4.18 | 18.2 | 3.89 | 26.2 | 7.11 | 62 | 22.7 | 54.7 | 4.65 | 15.3
10 | COc1cc(NS(C)(=O)=O)ccc1Cc1c2ccccc2nc2ccccc12 | 0.433 | 2.35 | 0.371 | 2.76 µM | 0.267 | 1.97 | 0.396 | 2.01 µM | 0.135 | 1.93 | 1.44 | 10 | 0.0535 | 1.37 | 0.0463 | 1.11 | 0.107 | 0.462 | 0.146 | 1.37
